#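 96-well plates; 48 h exposure; 5 concentrations. Endpoints by linear interpolation between flanking doses. Not reached: highest tested concentration assigned. TGI: concentration producing complete growth inhibition.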
# System: SK-OV-3 ovarian
# Test: NCI anticancer screen, dose series, 48 h
row,SMILES,TGI [µM]
1,C/C(=N\NC(N)=S)c1ccc(C2CCCCC2)cc1,75.9
2,CC[C@@]1(O)C(=O)OCc2c1cc1n(c2=O)Cc2c-1nc1ccccc1c2/C=N\NC(=O)C(N)Cc1c[nH]c2ccccc12 (stereo partly drawn),> 84
3,CCCCCCCCCCCCCCCCOCC(O)CO (stereo not drawn),31.3

# System: SNB-75 CNS
# Test: NCI anticancer screen, dose series, 48 h
row,SMILES,TGI [µM]
1,CCOC(=O)C1=C(C)N(Cc2ccccc2)C2(O)C=CC(=O)C3=C(O)c4ccccc4C(=O)C312 (stereo not drawn),55.4
2,COc1cc(-c2cc(=O)c3c(O)c(OC)c(OC)c(OC)c3o2)cc(OC)c1OC,6.2
3,COc1cc(/C=N/NC2=NCCN2)ccc1O,> 100
4,O=C(NCCCCCN1CCC2(CCCCC2)CC1)C(C1CCCCC1)C1CCCCC1,9.48
5,CC[C@@]1(O)C(=O)OCc2c1cc1n(c2=O)Cc2c-1nc1ccccc1c2/C=N\NC(=O)C(N)Cc1c[nH]c2ccccc12 (stereo partly drawn),1.83

# System: BT-549 breast
# Test: NCI anticancer screen, dose series, 48 h
row,SMILES,TGI [µM]
1,CCOC(=O)C1=C(C)N(Cc2ccccc2)C2(O)C=CC(=O)C3=C(O)c4ccccc4C(=O)C312 (stereo not drawn),20.2
2,COc1cc(-c2cc(=O)c3c(O)c(OC)c(OC)c(OC)c3o2)cc(OC)c1OC,> 100
3,COc1cc(/C=N/NC2=NCCN2)ccc1O,> 100
4,O=C(NCCCCCN1CCC2(CCCCC2)CC1)C(C1CCCCC1)C1CCCCC1,15.4
5,CC[C@@]1(O)C(=O)OCc2c1cc1n(c2=O)Cc2c-1nc1ccccc1c2/C=N\NC(=O)C(N)Cc1c[nH]c2ccccc12 (stereo partly drawn),> 100
6,CCCCCCCCCCCCCCCCOCC(O)CO (stereo not drawn),47

# System: KM12 colon
# Test: NCI anticancer screen, dose series, 48 h
row,SMILES,TGI [µM]
1,CCOC(=O)C1=C(C)N(Cc2ccccc2)C2(O)C=CC(=O)C3=C(O)c4ccccc4C(=O)C312 (stereo not drawn),28.5
2,COc1cc(-c2cc(=O)c3c(O)c(OC)c(OC)c(OC)c3o2)cc(OC)c1OC,> 100
3,COc1cc(/C=N/NC2=NCCN2)ccc1O,> 100
4,O=C(NCCCCCN1CCC2(CCCCC2)CC1)C(C1CCCCC1)C1CCCCC1,13
5,C/C(=N\NC(N)=S)c1ccc(C2CCCCC2)cc1,> 100
6,CC[C@@]1(O)C(=O)OCc2c1cc1n(c2=O)Cc2c-1nc1ccccc1c2/C=N\NC(=O)C(N)Cc1c[nH]c2ccccc12 (stereo partly drawn),> 42.7
7,CCCCCCCCCCCCCCCCOCC(O)CO (stereo not drawn),32.1

# System: ACHN renal
# Test: NCI anticancer screen, dose series, 48 h
row,SMILES,TGI [µM]
1,CCOC(=O)C1=C(C)N(Cc2ccccc2)C2(O)C=CC(=O)C3=C(O)c4ccccc4C(=O)C312 (stereo not drawn),34.6
2,COc1cc(-c2cc(=O)c3c(O)c(OC)c(OC)c(OC)c3o2)cc(OC)c1OC,> 100
3,COc1cc(/C=N/NC2=NCCN2)ccc1O,> 100
4,O=C(NCCCCCN1CCC2(CCCCC2)CC1)C(C1CCCCC1)C1CCCCC1,8.68
5,CC[C@@]1(O)C(=O)OCc2c1cc1n(c2=O)Cc2c-1nc1ccccc1c2/C=N\NC(=O)C(N)Cc1c[nH]c2ccccc12 (stereo partly drawn),0.446
6,CCCCCCCCCCCCCCCCOCC(O)CO (stereo not drawn),33.6

# System: SK-MEL-5 melanoma
# Test: NCI anticancer screen, dose series, 48 h
row,SMILES,TGI [µM]
1,CCOC(=O)C1=C(C)N(Cc2ccccc2)C2(O)C=CC(=O)C3=C(O)c4ccccc4C(=O)C312 (stereo not drawn),22
2,COc1cc(-c2cc(=O)c3c(O)c(OC)c(OC)c(OC)c3o2)cc(OC)c1OC,> 100
3,COc1cc(/C=N/NC2=NCCN2)ccc1O,> 100
4,O=C(NCCCCCN1CCC2(CCCCC2)CC1)C(C1CCCCC1)C1CCCCC1,2.96
5,CC[C@@]1(O)C(=O)OCc2c1cc1n(c2=O)Cc2c-1nc1ccccc1c2/C=N\NC(=O)C(N)Cc1c[nH]c2ccccc12 (stereo partly drawn),2.49
6,CCCCCCCCCCCCCCCCOCC(O)CO (stereo not drawn),71.9

# System: SF-539 CNS
# Test: NCI anticancer screen, dose series, 48 h
row,SMILES,TGI [µM]
1,CCOC(=O)C1=C(C)N(Cc2ccccc2)C2(O)C=CC(=O)C3=C(O)c4ccccc4C(=O)C312 (stereo not drawn),32.6
2,COc1cc(-c2cc(=O)c3c(O)c(OC)c(OC)c(OC)c3o2)cc(OC)c1OC,> 54.9
3,COc1cc(/C=N/NC2=NCCN2)ccc1O,> 100
4,O=C(NCCCCCN1CCC2(CCCCC2)CC1)C(C1CCCCC1)C1CCCCC1,3.43
5,C/C(=N\NC(N)=S)c1ccc(C2CCCCC2)cc1,38
6,CC[C@@]1(O)C(=O)OCc2c1cc1n(c2=O)Cc2c-1nc1ccccc1c2/C=N\NC(=O)C(N)Cc1c[nH]c2ccccc12 (stereo partly drawn),0.584
7,CCCCCCCCCCCCCCCCOCC(O)CO (stereo not drawn),31.5

# System: NCI-H460 lung
# Test: NCI anticancer screen, dose series, 48 h
row,SMILES,TGI [µM]
1,CCOC(=O)C1=C(C)N(Cc2ccccc2)C2(O)C=CC(=O)C3=C(O)c4ccccc4C(=O)C312 (stereo not drawn),24.4
2,COc1cc(-c2cc(=O)c3c(O)c(OC)c(OC)c(OC)c3o2)cc(OC)c1OC,> 100
3,COc1cc(/C=N/NC2=NCCN2)ccc1O,> 100
4,O=C(NCCCCCN1CCC2(CCCCC2)CC1)C(C1CCCCC1)C1CCCCC1,6.46
5,CC[C@@]1(O)C(=O)OCc2c1cc1n(c2=O)Cc2c-1nc1ccccc1c2/C=N\NC(=O)C(N)Cc1c[nH]c2ccccc12 (stereo partly drawn),6.42
6,CCCCCCCCCCCCCCCCOCC(O)CO (stereo not drawn),37.7

# System: M14 melanoma
# Test: NCI anticancer screen, dose series, 48 h
row,SMILES,TGI [µM]
1,CCOC(=O)C1=C(C)N(Cc2ccccc2)C2(O)C=CC(=O)C3=C(O)c4ccccc4C(=O)C312 (stereo not drawn),16.3
2,COc1cc(-c2cc(=O)c3c(O)c(OC)c(OC)c(OC)c3o2)cc(OC)c1OC,> 100

# Source: PubChem BioAssay (NCI)
